# Laboratory results as given in US12121521B2, “Uses of salt-inducible kinase (SIK) inhibitors for treating osteoporosis” (The General Hospital Corporation, priority 2016, dated 2024).
# Key:
# Assay in all cases: ScanEDGE kinase panel (DiscoverX)
# Assay type in all cases: binding
# Conditions in all cases: read-out: % of control activity at 71 nM
# [1] = target: T1, PIK3C2B (Homo sapiens, UniProt O00750)
# T1 construct: T7 phage fusion (most kinases) or DNA tag for qPCR (kinases made in HEK-293); purchased DiscoverX; host or cells: E. coli BL21-derived host (T7 phage) or HEK-293
# Experimental: (§1) ScanEDGE kinase assays paneling specificity across a panel of 96 representative kinases were performed by DiscoverX (Fremont, CA). For most assays, kinase-tagged T7 phage strains were grown in parallel in 24-well blocks in an E. coli host derived from the BL21 strain. Bacteria were grown to log phase and infected with T7 phage from frozen stock (MOI=0.4) and incubated with shaking at 32° C. until lysis (90-150 minutes). The lysates were centrifuged (6000×g) and filtered (0.2 μm) to remove cell debris. The remaining kinases were produced in HEK-293 cells and subsequently tagged with DNA for qPCR detection. […] The liganded beads were blocked with excess biotin and washing with blocking buffer (SeaBlock (Pierce), 1% BSA, 0.05% Tween 20, 1 mM DTT) to remove unbound ligand and to reduce non-specific phage binding. […] Test compounds were prepared as 40× stocks in 100% DMSO and directly diluted into the assay. All reactions were performed in polypropylene 384 well plates in a final volume of 40 μl. […] The kinase concentration in the eluates was measured by qPCR.
# [2] = target: T2, HIPK2 (Homo sapiens, UniProt Q9H2X6)
# T2 construct: T7 phage fusion (most kinases) or DNA tag for qPCR (HEK-293-made kinases); purchased DiscoverX; host or cells: E. coli BL21-derived host (T7 phage) or HEK-293
# Experimental: as §1
# [3] = target: T3, LCK (Homo sapiens, UniProt P06239)
# T3 construct: T7 phage fusion (most kinases) or DNA tag for qPCR (HEK-293-made kinases); purchased DiscoverX; host or cells: E. coli BL21-derived host (T7 phage) or HEK-293
# Experimental: as §1
# [4] = target: T4, MAP3K4 (Homo sapiens, UniProt Q9Y6R4)
# T4 construct: T7 phage fusion (most kinases) or DNA tag for qPCR (HEK-293-made kinases); purchased DiscoverX; host or cells: E. coli BL21-derived host (T7 phage) or HEK-293
# Experimental: as §1
# [5] = target: T5, ROCK2 (Homo sapiens, UniProt O75116)
# T5 construct: T7 phage fusion (most kinases) or DNA tag after HEK-293 expression; purchased DiscoverX (Fremont, CA), ScanEDGE; host or cells: T7 phage in E. coli BL21-derived host, or HEK-293
# T5 sequence (O75116 whole entry, the tested form may be a part): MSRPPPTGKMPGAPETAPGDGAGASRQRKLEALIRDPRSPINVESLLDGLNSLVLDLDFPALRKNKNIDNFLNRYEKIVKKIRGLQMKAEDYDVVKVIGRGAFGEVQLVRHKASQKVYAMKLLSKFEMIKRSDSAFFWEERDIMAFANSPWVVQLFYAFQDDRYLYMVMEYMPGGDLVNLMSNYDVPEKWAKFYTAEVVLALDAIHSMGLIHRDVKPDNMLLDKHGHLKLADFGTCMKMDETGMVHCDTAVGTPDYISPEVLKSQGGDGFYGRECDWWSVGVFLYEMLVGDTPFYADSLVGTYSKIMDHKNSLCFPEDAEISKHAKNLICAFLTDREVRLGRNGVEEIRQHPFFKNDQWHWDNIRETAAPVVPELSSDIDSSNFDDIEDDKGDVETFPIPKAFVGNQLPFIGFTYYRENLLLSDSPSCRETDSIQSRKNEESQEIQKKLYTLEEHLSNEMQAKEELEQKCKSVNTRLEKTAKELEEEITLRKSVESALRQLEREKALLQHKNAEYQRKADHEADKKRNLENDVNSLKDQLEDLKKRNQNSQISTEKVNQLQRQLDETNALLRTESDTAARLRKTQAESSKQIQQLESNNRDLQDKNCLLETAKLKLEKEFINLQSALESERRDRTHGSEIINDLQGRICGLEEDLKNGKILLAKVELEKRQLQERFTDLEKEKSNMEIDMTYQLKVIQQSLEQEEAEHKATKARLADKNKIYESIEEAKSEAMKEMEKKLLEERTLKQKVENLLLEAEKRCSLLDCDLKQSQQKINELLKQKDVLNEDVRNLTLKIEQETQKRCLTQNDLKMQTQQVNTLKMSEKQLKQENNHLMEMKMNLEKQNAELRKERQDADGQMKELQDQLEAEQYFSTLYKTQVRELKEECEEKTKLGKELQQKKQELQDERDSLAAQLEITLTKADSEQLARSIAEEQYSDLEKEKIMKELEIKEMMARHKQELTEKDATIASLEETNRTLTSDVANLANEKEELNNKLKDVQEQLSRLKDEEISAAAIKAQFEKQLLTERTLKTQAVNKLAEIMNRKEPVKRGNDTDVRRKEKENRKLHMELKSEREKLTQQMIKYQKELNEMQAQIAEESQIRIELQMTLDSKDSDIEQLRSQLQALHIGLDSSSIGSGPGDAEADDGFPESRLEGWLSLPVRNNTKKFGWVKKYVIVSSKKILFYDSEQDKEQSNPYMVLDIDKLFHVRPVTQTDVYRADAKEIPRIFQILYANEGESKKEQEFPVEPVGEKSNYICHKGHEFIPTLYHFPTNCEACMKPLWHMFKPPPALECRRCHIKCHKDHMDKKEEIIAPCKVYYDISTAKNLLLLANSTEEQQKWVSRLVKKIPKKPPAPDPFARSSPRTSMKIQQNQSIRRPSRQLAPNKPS
# Experimental: as §1
# [6] = target: T6, PKAC-alpha (Homo sapiens, UniProt P17612)
# T6 construct: T7 phage fusion (most kinases) or DNA tag for qPCR (kinases made in HEK-293); purchased DiscoverX; host or cells: E. coli BL21-derived host (T7 phage) or HEK-293
# Experimental: as §1
# [7] = target: T7, PIM1 (Homo sapiens, UniProt P11309)
# T7 construct: T7 phage fusion (most kinases) or DNA tag for qPCR (kinases made in HEK-293); purchased DiscoverX; host or cells: E. coli BL21-derived host (T7 phage) or HEK-293
# Experimental: as §1
# [8] = target: T8, CSF1R (Homo sapiens, UniProt P07333)
# T8 construct: T7 phage fusion (most kinases) or DNA tag for qPCR (HEK-293-made kinases); purchased DiscoverX (Fremont, CA); host or cells: E. coli BL21-derived host (T7 phage) or HEK-293
# T8 sequence (P07333 20-972): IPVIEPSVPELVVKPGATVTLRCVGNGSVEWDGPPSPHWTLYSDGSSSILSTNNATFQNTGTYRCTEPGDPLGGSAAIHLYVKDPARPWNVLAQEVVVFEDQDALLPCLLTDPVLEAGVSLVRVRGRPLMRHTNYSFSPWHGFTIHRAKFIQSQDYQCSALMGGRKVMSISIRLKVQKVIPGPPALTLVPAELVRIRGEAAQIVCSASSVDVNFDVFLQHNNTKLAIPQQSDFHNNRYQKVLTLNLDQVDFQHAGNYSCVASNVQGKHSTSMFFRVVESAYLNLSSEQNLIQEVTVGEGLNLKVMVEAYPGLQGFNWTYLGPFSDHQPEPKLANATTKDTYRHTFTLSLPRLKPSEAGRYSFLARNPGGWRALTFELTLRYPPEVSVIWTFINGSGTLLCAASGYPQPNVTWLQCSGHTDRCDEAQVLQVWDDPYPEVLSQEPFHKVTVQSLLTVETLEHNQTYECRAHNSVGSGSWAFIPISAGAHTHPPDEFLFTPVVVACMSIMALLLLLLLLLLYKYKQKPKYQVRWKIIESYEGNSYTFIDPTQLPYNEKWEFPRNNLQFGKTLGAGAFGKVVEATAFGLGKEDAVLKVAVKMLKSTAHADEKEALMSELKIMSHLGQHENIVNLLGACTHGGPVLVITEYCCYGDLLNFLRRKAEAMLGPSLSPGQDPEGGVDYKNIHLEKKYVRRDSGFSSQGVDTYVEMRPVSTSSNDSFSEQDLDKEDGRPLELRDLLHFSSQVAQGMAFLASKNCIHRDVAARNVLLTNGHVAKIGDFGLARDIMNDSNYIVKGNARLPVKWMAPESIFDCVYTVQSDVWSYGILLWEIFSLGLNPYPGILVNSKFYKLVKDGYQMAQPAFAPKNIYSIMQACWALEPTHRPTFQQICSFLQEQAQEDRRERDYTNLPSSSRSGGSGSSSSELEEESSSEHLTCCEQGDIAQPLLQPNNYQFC
# Experimental: as §1
# [9] = target: T9, YANK3 (Homo sapiens, UniProt Q86UX6)
# T9 construct: T7 phage fusion (most kinases) or DNA tag after HEK-293 expression; purchased DiscoverX (Fremont, CA), ScanEDGE; host or cells: T7 phage in E. coli BL21-derived host, or HEK-293
# Experimental: as §1
# [10] = target: T10, BMPR2 (Homo sapiens, UniProt Q13873)
# T10 construct: T7 phage fusion (most kinases) or DNA tag for qPCR (HEK-293-made kinases); purchased DiscoverX (Fremont, CA); host or cells: E. coli BL21-derived host (T7 phage) or HEK-293
# Experimental: as §1
# [11] = target: T11, PAK2 (Homo sapiens, UniProt Q13177)
# T11 construct: T7 phage fusion (most kinases) or DNA tag for qPCR (kinases made in HEK-293); purchased DiscoverX; host or cells: E. coli BL21-derived host (T7 phage) or HEK-293
# Experimental: as §1
# [12] = target: T12, PDGFRA (Homo sapiens, UniProt P16234)
# T12 construct: T7 phage fusion (most kinases) or DNA tag for qPCR (kinases made in HEK-293); purchased DiscoverX; host or cells: E. coli BL21-derived host (T7 phage) or HEK-293
# Experimental: as §1
# [13] = target: T13, FGFR2 (Homo sapiens, UniProt P21802)
# T13 construct: T7 phage fusion (most kinases) or DNA tag for qPCR (HEK-293-made kinases); purchased DiscoverX; host or cells: E. coli BL21-derived host (T7 phage) or HEK-293
# Experimental: as §1
# [14] = target: T14, ARK5 (Homo sapiens, UniProt O60285)
# T14 construct: T7 phage fusion (most kinases) or DNA tag for qPCR (HEK-293-made kinases); purchased DiscoverX (Fremont, CA); host or cells: E. coli BL21-derived host (T7 phage) or HEK-293
# Experimental: as §1
# [15] = target: T15, p38-alpha (Homo sapiens, UniProt Q16539)
# T15 construct: T7 phage fusion (most kinases) or DNA tag for qPCR (kinases made in HEK-293); purchased DiscoverX; host or cells: E. coli BL21-derived host (T7 phage) or HEK-293
# Experimental: as §1
# [16] = target: T16, SNARK (Homo sapiens, UniProt Q9H093)
# T16 construct: T7 phage fusion (most kinases) or DNA tag after HEK-293 expression; purchased DiscoverX (Fremont, CA), ScanEDGE; host or cells: T7 phage in E. coli BL21-derived host, or HEK-293
# Experimental: as §1
# [17] = target: T17, ALK (Homo sapiens, UniProt Q9UM73)
# T17 construct: T7 phage fusion (most kinases) or DNA tag for qPCR (HEK-293-made kinases); purchased DiscoverX (Fremont, CA); host or cells: E. coli BL21-derived host (T7 phage) or HEK-293
# Experimental: as §1
# [18] = target: T18, BRSK1 (Homo sapiens, UniProt Q8TDC3)
# T18 construct: T7 phage fusion (most kinases) or DNA tag for qPCR (HEK-293-made kinases); purchased DiscoverX (Fremont, CA); host or cells: E. coli BL21-derived host (T7 phage) or HEK-293
# Experimental: as §1
# [19] = target: T19, AXL (Homo sapiens, UniProt P30530)
# T19 construct: T7 phage fusion (most kinases) or DNA tag for qPCR (HEK-293-made kinases); purchased DiscoverX (Fremont, CA); host or cells: E. coli BL21-derived host (T7 phage) or HEK-293
# Experimental: as §1
# [20] = target: T20, MARK1 (Homo sapiens, UniProt Q9P0L2)
# T20 construct: T7 phage fusion (most kinases) or DNA tag for qPCR (HEK-293-made kinases); purchased DiscoverX; host or cells: E. coli BL21-derived host (T7 phage) or HEK-293
# Experimental: as §1
# [21] = target: T21, JNK2 (Homo sapiens, UniProt P45984)
# T21 construct: T7 phage fusion (most kinases) or DNA tag for qPCR (HEK-293-made kinases); purchased DiscoverX; host or cells: E. coli BL21-derived host (T7 phage) or HEK-293
# Experimental: as §1
# [22] = target: T22, RIPK2 (Homo sapiens, UniProt O43353)
# T22 construct: T7 phage fusion (most kinases) or DNA tag after HEK-293 expression; purchased DiscoverX (Fremont, CA), ScanEDGE; host or cells: T7 phage in E. coli BL21-derived host, or HEK-293
# Experimental: as §1
# [23] = target: T23, DCAMKL1 (Homo sapiens, UniProt O15075)
# T23 construct: T7 phage fusion (most kinases) or DNA tag for qPCR (HEK-293-made kinases); purchased DiscoverX (Fremont, CA); host or cells: E. coli BL21-derived host (T7 phage) or HEK-293
# Experimental: as §1
# [24] = target: T24, VEGFR2 (Homo sapiens, UniProt P35968)
# T24 construct: T7 phage fusion (most kinases) or DNA tag after HEK-293 expression; purchased DiscoverX (Fremont, CA), ScanEDGE; host or cells: T7 phage in E. coli BL21-derived host, or HEK-293
# Experimental: as §1
# [25] = target: T25, AURKA (Homo sapiens, UniProt O14965)
# T25 construct: T7 phage fusion (most kinases) or DNA tag for qPCR (HEK-293-made kinases); purchased DiscoverX (Fremont, CA); host or cells: E. coli BL21-derived host (T7 phage) or HEK-293
# Experimental: as §1
# [26] = target: T26, AKT1 (Homo sapiens, UniProt P31749)
# T26 construct: T7 phage fusion (most kinases) or DNA tag for qPCR (HEK-293-made kinases); purchased DiscoverX (Fremont, CA); host or cells: E. coli BL21-derived host (T7 phage) or HEK-293
# T26 sequence (P31749 whole entry, the tested form may be a part): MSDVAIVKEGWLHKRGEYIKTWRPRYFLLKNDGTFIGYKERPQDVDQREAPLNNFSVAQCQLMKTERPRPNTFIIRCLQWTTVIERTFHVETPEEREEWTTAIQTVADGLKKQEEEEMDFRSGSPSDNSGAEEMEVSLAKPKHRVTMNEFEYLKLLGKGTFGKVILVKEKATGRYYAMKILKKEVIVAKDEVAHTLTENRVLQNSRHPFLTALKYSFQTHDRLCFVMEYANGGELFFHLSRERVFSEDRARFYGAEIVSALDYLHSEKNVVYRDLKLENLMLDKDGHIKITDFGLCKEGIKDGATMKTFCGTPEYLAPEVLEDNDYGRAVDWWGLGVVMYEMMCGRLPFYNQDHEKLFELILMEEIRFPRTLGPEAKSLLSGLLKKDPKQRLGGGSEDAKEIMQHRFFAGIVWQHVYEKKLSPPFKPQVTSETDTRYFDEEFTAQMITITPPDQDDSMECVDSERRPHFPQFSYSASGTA
# Experimental: as §1
# [27] = target: T27, JNK1 (Homo sapiens, UniProt P45983)
# T27 construct: T7 phage fusion (most kinases) or DNA tag for qPCR (HEK-293-made kinases); purchased DiscoverX; host or cells: E. coli BL21-derived host (T7 phage) or HEK-293
# Experimental: as §1
# [28] = target: T28, CSNK1G2 (Homo sapiens, UniProt P78368)
# T28 construct: T7 phage fusion (most kinases) or DNA tag for qPCR (HEK-293-made kinases); purchased DiscoverX (Fremont, CA); host or cells: E. coli BL21-derived host (T7 phage) or HEK-293
# T28 sequence (P78368 whole entry, the tested form may be a part): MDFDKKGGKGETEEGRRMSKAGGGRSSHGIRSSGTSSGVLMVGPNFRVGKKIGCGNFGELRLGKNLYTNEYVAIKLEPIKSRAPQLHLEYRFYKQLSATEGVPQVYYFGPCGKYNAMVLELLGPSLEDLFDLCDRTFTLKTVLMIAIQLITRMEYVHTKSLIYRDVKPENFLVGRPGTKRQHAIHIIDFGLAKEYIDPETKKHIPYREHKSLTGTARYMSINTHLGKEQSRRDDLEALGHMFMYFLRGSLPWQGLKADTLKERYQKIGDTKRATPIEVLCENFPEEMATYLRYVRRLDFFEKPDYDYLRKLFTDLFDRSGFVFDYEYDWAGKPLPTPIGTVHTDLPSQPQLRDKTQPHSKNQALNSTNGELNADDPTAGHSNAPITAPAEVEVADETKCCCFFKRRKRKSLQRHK
# Experimental: as §1
# [29] = target: T29, AMPK-alpha1 (Homo sapiens, UniProt Q13131)
# T29 construct: T7 phage fusion (most kinases) or DNA tag for qPCR (HEK-293-made kinases); purchased DiscoverX (Fremont, CA); host or cells: E. coli BL21-derived host (T7 phage) or HEK-293
# T29 sequence (Q13131 whole entry, the tested form may be a part): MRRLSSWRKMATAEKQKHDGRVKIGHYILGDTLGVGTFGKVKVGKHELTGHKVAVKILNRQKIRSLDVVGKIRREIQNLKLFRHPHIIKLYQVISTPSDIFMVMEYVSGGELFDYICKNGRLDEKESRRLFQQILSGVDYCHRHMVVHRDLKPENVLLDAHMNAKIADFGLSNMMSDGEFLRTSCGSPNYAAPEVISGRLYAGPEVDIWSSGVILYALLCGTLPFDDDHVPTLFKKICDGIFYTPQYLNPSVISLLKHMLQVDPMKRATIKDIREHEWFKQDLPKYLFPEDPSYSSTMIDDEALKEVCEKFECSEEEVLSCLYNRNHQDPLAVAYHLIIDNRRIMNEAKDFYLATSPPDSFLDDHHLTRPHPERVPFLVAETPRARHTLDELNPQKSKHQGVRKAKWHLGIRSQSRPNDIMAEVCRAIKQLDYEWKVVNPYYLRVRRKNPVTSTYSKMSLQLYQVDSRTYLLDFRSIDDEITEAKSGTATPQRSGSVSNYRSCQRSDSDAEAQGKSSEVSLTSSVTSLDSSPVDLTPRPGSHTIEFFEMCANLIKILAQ
# Experimental: as §1
# [30] = target: T30, ERBB4 (Homo sapiens, UniProt Q15303)
# T30 construct: T7 phage fusion (most kinases) or DNA tag for qPCR (HEK-293-made kinases); purchased DiscoverX; host or cells: E. coli BL21-derived host (T7 phage) or HEK-293
# T30 sequence (Q15303 26-1308): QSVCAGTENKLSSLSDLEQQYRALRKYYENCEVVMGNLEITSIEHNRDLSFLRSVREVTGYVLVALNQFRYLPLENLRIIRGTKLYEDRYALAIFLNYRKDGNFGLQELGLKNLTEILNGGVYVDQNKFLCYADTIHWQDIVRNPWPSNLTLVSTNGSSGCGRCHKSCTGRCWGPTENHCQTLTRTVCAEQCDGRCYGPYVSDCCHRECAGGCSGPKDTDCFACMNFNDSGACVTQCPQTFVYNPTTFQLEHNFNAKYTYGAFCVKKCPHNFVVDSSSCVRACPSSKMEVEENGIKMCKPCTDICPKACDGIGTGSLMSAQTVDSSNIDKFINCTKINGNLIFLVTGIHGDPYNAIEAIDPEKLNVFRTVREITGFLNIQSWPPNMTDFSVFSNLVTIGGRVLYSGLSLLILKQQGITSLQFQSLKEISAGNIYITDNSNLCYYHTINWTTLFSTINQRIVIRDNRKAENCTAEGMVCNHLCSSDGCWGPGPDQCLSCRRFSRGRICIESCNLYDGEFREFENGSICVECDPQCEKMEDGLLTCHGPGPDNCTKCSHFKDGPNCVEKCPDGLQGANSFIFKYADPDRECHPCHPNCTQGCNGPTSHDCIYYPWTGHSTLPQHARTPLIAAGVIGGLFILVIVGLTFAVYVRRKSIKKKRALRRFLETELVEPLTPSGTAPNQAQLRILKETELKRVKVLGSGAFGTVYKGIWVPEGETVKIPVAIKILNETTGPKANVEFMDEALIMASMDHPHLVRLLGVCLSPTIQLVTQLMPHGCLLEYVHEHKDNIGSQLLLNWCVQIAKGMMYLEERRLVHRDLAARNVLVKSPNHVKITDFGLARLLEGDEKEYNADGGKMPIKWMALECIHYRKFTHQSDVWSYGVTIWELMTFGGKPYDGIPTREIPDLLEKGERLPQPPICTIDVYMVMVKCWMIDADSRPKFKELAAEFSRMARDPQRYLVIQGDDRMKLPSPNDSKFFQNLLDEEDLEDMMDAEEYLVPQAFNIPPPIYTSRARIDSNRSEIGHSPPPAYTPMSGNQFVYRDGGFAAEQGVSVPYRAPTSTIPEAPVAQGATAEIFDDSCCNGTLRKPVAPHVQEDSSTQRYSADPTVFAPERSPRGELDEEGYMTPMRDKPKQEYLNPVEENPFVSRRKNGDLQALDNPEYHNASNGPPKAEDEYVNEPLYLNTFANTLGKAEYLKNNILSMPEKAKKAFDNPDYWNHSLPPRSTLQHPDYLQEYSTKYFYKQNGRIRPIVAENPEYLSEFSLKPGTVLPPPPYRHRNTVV
# Experimental: as §1
# [31] = target: T31, MEK1 (Homo sapiens, UniProt Q02750)
# T31 construct: T7 phage fusion (most kinases) or DNA tag for qPCR (kinases made in HEK-293); purchased DiscoverX; host or cells: E. coli BL21-derived host (T7 phage) or HEK-293
# Experimental: as §1
# [32] = target: T32, PCTK1 (Homo sapiens, UniProt Q00536)
# T32 construct: T7 phage fusion (most kinases) or DNA tag for qPCR (kinases made in HEK-293); purchased DiscoverX; host or cells: E. coli BL21-derived host (T7 phage) or HEK-293
# Experimental: as §1
# [33] = target: T33, MARK3 (Homo sapiens, UniProt P27448)
# T33 construct: T7 phage fusion (most kinases) or DNA tag for qPCR (HEK-293-made kinases); purchased DiscoverX; host or cells: E. coli BL21-derived host (T7 phage) or HEK-293
# Experimental: as §1
smiles,measurement,setting,value
COc1ccc(N2C(=O)N(c3c(C)cccc3C)Cc3cnc(Nc4ccc(C5CCN(C)CC5)c(OC)c4)nc32)c(OC)c1 [YKL-05-093],remaining binding at 0.071 µM,[1],100%
same,remaining binding at 0.071 µM,[2],100%
same,remaining binding at 0.071 µM,[3],0.75%
same,remaining binding at 0.071 µM,[4],60%
same,remaining binding at 0.071 µM,[5],70%
same,remaining binding at 0.071 µM,[6],100%
same,remaining binding at 0.071 µM,[7],89%
same,remaining binding at 0.071 µM,[8],0.85%
same,remaining binding at 0.071 µM,[9],95%
same,remaining binding at 0.071 µM,[10],87%
same,remaining binding at 0.071 µM,[11],75%
same,remaining binding at 0.071 µM,[12],11%
same,remaining binding at 0.071 µM,[13],8.9%
same,remaining binding at 0.071 µM,[14],77%
same,remaining binding at 0.071 µM,[15],0.95%
same,remaining binding at 0.071 µM,[16],6%
same,remaining binding at 0.071 µM,[17],23%
same,remaining binding at 0.071 µM,[18],74%
same,remaining binding at 0.071 µM,[19],68%
same,remaining binding at 0.071 µM,[20],84%
same,remaining binding at 0.071 µM,[21],89%
same,remaining binding at 0.071 µM,[22],16%
same,remaining binding at 0.071 µM,[23],89%
same,remaining binding at 0.071 µM,[24],26%
same,remaining binding at 0.071 µM,[25],12%
same,remaining binding at 0.071 µM,[26],92%
same,remaining binding at 0.071 µM,[27],97%
same,remaining binding at 0.071 µM,[28],100%
same,remaining binding at 0.071 µM,[29],94%
same,remaining binding at 0.071 µM,[30],6.1%
same,remaining binding at 0.071 µM,[31],20%
same,remaining binding at 0.071 µM,[32],91%
same,remaining binding at 0.071 µM,[33],40%
